Measurements taken from patent publication US20240228506A1, “RIPK1 INHIBITORS AND METHODS OF USE” (Merck Sharp & Dohme LLC, priority 2021, published 2024).
pIC50: −log10 of the molar value.

Each compound was assayed against T1, GST-RIPK1 (recombinant GST-RIPK1 kinase domain (residues 1-327)) (Homo sapiens, UniProt Q13546) (assay: RIPK1-ADP-Glo enzymatic assay). Settings: 25 nM GST-RIPK1, 300 μM ATP, 3 μM dephosphorylated-MBP; 30 minutes pre-incubation, 150 minutes reaction; ten-point titration.
T1 construct: recombinant GST-RIPK1 kinase domain (residues 1-327) enzyme; made in house; host or cells: baculovirus-transfected Sf21 insect cells
T1 sequence (Q13546 1-327): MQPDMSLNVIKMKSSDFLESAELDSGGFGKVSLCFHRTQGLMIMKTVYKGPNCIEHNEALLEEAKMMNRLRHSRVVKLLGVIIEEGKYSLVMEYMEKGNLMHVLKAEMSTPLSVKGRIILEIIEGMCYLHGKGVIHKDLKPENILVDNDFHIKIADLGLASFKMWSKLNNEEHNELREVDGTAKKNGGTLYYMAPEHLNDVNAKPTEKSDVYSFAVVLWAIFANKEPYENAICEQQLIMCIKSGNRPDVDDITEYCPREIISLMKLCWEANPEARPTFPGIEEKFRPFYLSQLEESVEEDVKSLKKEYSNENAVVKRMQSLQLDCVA
Type: biochemical
In short: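 Ten-point 1:3 titrations from 100000 nM, 1% DMSO, were preincubated 30 min with 25 nM GST-RIPK1 (1-327) before starting with 300 μM ATP plus 3 μM dephosphorylated MBP; 150 min reaction. ADP-Glo luminescence measured ATP-to-ADP conversion; EC50 by four-parameter sigmoidal regression.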

Structure (SMILES) | pIC50
COc1ccnc(N2CCC(F)(C(=O)N3C[C@@H]4C[C@H]3c3cncc(C#N)c3O4)CC2)n1 [Compound 1-56, (2S,5S)-4-(4-fluoro-1-(4-methoxypyrimidin-2-yl)piperidine-4-carbonyl)-2,3,4,5-tetrahydro-2,5-methanopyrido[3,4-f][1,4]oxazepine-9-carbonitrile] | 7.39
CC(C)(C(=O)N1C[C@@H]2C[C@H]1c1cncc(Cl)c1O2)C(F)F [Compound 2-2, 1-((2S,5S)-9-Chloro-2,3-dihydro-2,5-methanopyrido[3,4-f][1,4]oxazepin-4(5H)-yl)-3,3-difluoro-2,2-dimethylpropan-1-one] | 6.86
COc1cc(N2CCC(F)(C(=O)N3C[C@@H]4C[C@H]3c3cncc(C#N)c3O4)CC2)ncn1 [Compound 1-53, (2S,5S)-4-(4-fluoro-1-(6-methoxypyrimidin-4-yl)piperidine-4-carbonyl)-2,3,4,5-tetrahydro-2,5-methanopyrido[3,4-f][1,4]oxazepine-9-carbonitrile] | 6.65
CCC(C)(C)C(=O)N1C[C@@H]2C[C@H]1c1cncc(Cl)c1O2 [Compound 2-9, 1-((2S,5S)-9-chloro-2,3-dihydro-2,5-methanopyrido[3,4-f][1,4]oxazepin-4(5H)-yl)-2,2-dimethylbutan-1-one] | 7.39
N#Cc1cncc2c1O[C@H]1C[C@@H]2N(C(=O)C2(C#N)CCC2)C1 [Compound 1-110, (2S,5S)-4-(1-cyanocyclobutane-1-carbonyl)-2,3,4,5-tetrahydro-2,5-methanopyrido[3,4-f][1,4]oxazepine-9-carbonitrile] | 6.89
CC(C)(C(=O)N1C[C@@H]2C[C@H]1c1cncc(C#CCF)c1O2)C(F)F [Compound 2-113, 3,3-difluoro-1-((2S,5S)-9-(3-fluoroprop-1-yn-1-yl)-2,3-dihydro-2,5-methanopyrido[3,4-f][1,4]oxazepin-4(5H)-yl)-2,2-dimethylpropan-1-one] | 6.94
N#Cc1cncc2c1O[C@H]1C[C@@H]2N(C(=O)C23CCCC2C3)C1 (single isomer, unassigned) [Compound 1-33, (2S,5S)-4-[(1R,5R or 1S,5S)-bicyclo[3.1.0]hexane-1-carbonyl]-2,3,4,5-tetrahydro-2,5-methanopyrido[3,4-f][1,4]oxazepine-9-carbonitrile] | 7.03
CC(C)(C)C(=O)N1C[C@@H]2C[C@H]1c1cncc(C#CC(O)(c3ccccc3)C(F)(F)F)c1O2 (stereo partly drawn) [Compound 2-36, 2,2-dimethyl-1-((2S,5S)-9-(4,4,4-trifluoro-3-hydroxy-3-phenylbut-1-yn-1-yl)-2,3-dihydro-2,5-methanopyrido[3,4-f][1,4]oxazepin-4(5H)-yl)propan-1-one] | 6.28
N#Cc1cncc2c1O[C@H]1C[C@@H]2N(C(=O)[C@H]2C[C@H](Oc3ccc(F)cc3F)C2)C1 [Compound 1-102] | 7.12
CC1(C(=O)N2C[C@@H]3C[C@H]2c2cncc(C#N)c2O3)CC(F)(F)C1 [Compound 1-77, (2S,5S)-4-(3,3-difluoro-1-methylcyclobutane-1-carbonyl)-2,3,4,5-tetrahydro-2,5-methanopyrido[3,4-f][1,4]oxazepine-9-carbonitrile] | 6.86
CC(C)(C(=O)N1C[C@@H]2C[C@H]1c1cncc(C#N)c1O2)C1CC1 [Compound 1-8, (2S,5S)-4-(2-cyclopropyl-2-methylpropanoyl)-2,3,4,5-tetrahydro-2,5-methanopyrido[3,4-f][1,4]oxazepine-9-carbonitrile] | 7.54
CC(F)(F)C(C)(C)C(=O)N1C[C@@H]2C[C@H]1c1cncnc1O2 [Compound 3-2, 1-((5S,8S)-7,8-dihydro-5,8-methanopyrimido[5,4-f][1,4]oxazepin-6(5H)-yl)-3,3-difluoro-2,2-dimethylbutan-1-one] | 5.92
CC(C)(C(=O)N1C[C@@H]2C[C@H]1c1cncc(C#N)c1S2)C(F)F [Compound 4-1, (2S,5S)-4-(3,3-difluoro-2,2-dimethylpropanoyl)-2,3,4,5-tetrahydro-2,5-methanopyrido[3,4-f][1,4]thiazepine-9-carbonitrile] | 7.62
N#Cc1cncc2c1O[C@H]1C[C@@H]2N(C(=O)C2CC3(CCCC3)C2)C1 [Compound 1-45, (2S,5S)-4-(spiro[3.4]octane-2-carbonyl)-2,3,4,5-tetrahydro-2,5-methanopyrido[3,4-f][1,4]oxazepine-9-carbonitrile] | 6.48
CCC(C)(C#N)C(=O)N1C[C@@H]2C[C@H]1c1cncc(C#N)c1O2 (single isomer, unassigned) [Compound 1-113, (2S,5S)-4-(2-(R or S)-cyano-2-methylbutanoyl)-2,3,4,5-tetrahydro-2,5-methanopyrido[3,4-f][1,4]oxazepine-9-carbonitrile] | 6.81
CC(C)(C(=O)N1C[C@@H]2C[C@H]1c1cncc(C#N)c1O2)C1CCC1 [Compound 1-25, (2S,5S)-4-(2-cyclobutyl-2-methylpropanoyl)-2,3,4,5-tetrahydro-2,5-methanopyrido[3,4-f][1,4]oxazepine-9-carbonitrile] | 6.92
N#Cc1cncc2c1O[C@H]1C[C@@H]2N(C(=O)[C@H]2C[C@@H](Oc3ccc(F)cc3F)C2)C1 [Compound 1-101] | 6.88
CC(C)(C(=O)N1C[C@@H]2C[C@H]1c1cncc(C#Cc3ccc(OC(F)F)nc3)c1O2)C(F)F [Compound 2-88, 1-((2S,5S)-9-((6-(difluoromethoxy)pyridin-3-yl)ethynyl)-2,3-dihydro-2,5-methanopyrido[3,4-f][1,4]oxazepin-4(5H)-yl)-3,3-difluoro-2,2-dimethylpropan-1-one] | 7.46
CN(C)C(C)(C)C(=O)N1C[C@@H]2C[C@H]1c1cncc(C#N)c1O2 [Compound 1-90, (2S,5S)-4-(2-(dimethylamino)-2-methylpropanoyl)-2,3,4,5-tetrahydro-2,5-methanopyrido[3,4-f][1,4]oxazepine-9-carbonitrile] | 7.07

Second part, the compound after the results:

pIC50 | Structure (SMILES)
7.06 | N#CC12CCC(C(=O)N3C[C@@H]4C[C@H]3c3cncc(Cl)c3O4)(C1)C2 [Compound 2-26, 4-((2S,5S)-9-chloro-2,3,4,5-tetrahydro-2,5-methanopyrido[3,4-f][1,4]oxazepine-4-carbonyl)bicyclo[2.1.1] hexane-1-carbonitrile]
7.92 | O=C(N1C[C@@H]2C[C@H]1c1cncc(C#Cc3cccnc3)c1O2)C12CCC(C(F)(F)F)(CC1)C2 [Compound 2-58, ((2S,5S)-9-(pyridin-3-ylethynyl)-2,3-dihydro-2,5-methanopyrido[3,4-f][1,4]oxazepin-4(5H)-yl)(4-(trifluoromethyl)bicyclo [2.2.1]heptan-1-yl)methanone]
6.89 | N#Cc1cncc2c1O[C@H]1C[C@@H]2N(C(=O)C2(C(F)(F)F)CCCC2)C1 [Compound 1-13, (2S,5S)-4-[1-(trifluoromethyl)cyclopentane-1-carbonyl]-2,3,4,5-tetrahydro-2,5-methanopyrido[3,4-f][1,4]oxazepine-9-carbonitrile]
7.39 | COc1ccnc(C#Cc2cncc3c2O[C@H]2C[C@@H]3N(C(=O)C34CCC(C(F)(F)F)(CC3)C4)C2)c1 [Compound 2-69, ((2S,5S)-9-((4-methoxypyridin-2-yl)ethynyl)-2,3-dihydro-2,5-methanopyrido[3,4-f][1,4]oxazepin-4(5H)-yl)(4-(trifluoromethyl)bicyclo [2.2.1]heptan-1-yl)methanone]
7.89 | Cc1ncc2c(c1C#N)O[C@H]1C[C@@H]2N(C(=O)C23CCC(C(F)(F)F)(CC2)C3)C1 [Compound 1-82, (2S,5S)-8-methyl-4-(4-(trifluoromethyl)bicyclo[2.2.1]heptane-1-carbonyl)-2,3,4,5-tetrahydro-2,5-methanopyrido[3,4-f](1,4]oxazepine-9-carbonitrile]
7.14 | COc1ccccc1C#Cc1cncc2c1O[C@H]1C[C@@H]2N(C(=O)C23CCC(C(F)(F)F)(CC2)C3)C1 [Compound 2-70, ((2S,5S)-9-((2-methoxyphenyl)ethynyl)-2,3-dihydro-2,5-methanopyrido[3,4-f][1,4]oxazepin-4(5H)-yl)(4-(trifluoromethyl)bicyclo [2.2.1]heptan-1-yl)methanone]
6.66 | CC(F)(F)C1(C(=O)N2C[C@@H]3C[C@H]2c2cncc(C#N)c2O3)CC1 [Compound 1-27, (2S,5S)-4-[1-(1,1-difluoroethyl)cyclopropane-1-carbonyl]-2,3,4,5-tetrahydro-2,5-methanopyrido[3,4-f][1,4]oxazepine-9-carbonitrile]
7.66 | O=C(N1C[C@@H]2C[C@H]1c1cncc(C#Cc3cnccn3)c1O2)C12CCC(C(F)(F)F)(CC1)C2 [Compound 2-61, ((2S,5S)-9-(pyrazin-2-ylethynyl)-2,3-dihydro-2,5-methanopyrido[3,4-f][1,4]oxazepin-4(5H)-yl)(4-(trifluoromethyl)bicyclo [2.2.1]heptan-1-yl)methanone]
7.74 | N#Cc1cncc2c1O[C@H]1C[C@@H]2N(C(=O)C2(F)CCN(c3ccnc4c(F)cnn34)CC2)C1 [Compound 1-55, (2S,5S)-4-(4-fluoro-1-(3-fluoropyrazolo[1,5-a]pyrimidin-7-yl)piperidine-4-carbonyl)-2,3,4,5-tetrahydro-2,5-methanopyrido[3,4-f][1,4]oxazepine-9-carbonitrile]
7.37 | CCC#Cc1cncc2c1O[C@H]1C[C@@H]2N(C(=O)C23CCC(F)(CC2)C3)C1 [Compound 2-117]
7.77 | Cc1ccc(C#Cc2cncc3c2O[C@H]2C[C@@H]3N(C(=O)C34CCC(C(F)(F)F)(CC3)C4)C2)cn1 [Compound 2-62]
